As usually defined, the IC50 is the concentration that gives 50% inhibition. Low values mean greater potency in that assay, high ones weaker potency in that assay.

Experiment [1] deals with T1, GDP-loaded KRAS (1-169) G12C, C51S, C80L, C118S (Homo sapiens, UniProt P01116, C118S/C51S/C80L/G12C).
T1 construct: GDP-loaded KRAS (1-169) G12C, C51S, C80L, C118S
Kind of experiment: Mass Spectrometry Reactivity Assay (MSRA): covalent adduct of compound and KRAS G12C, Percent Modification. Format: binding. To be noted: for MSRA (% modification) 5.0 μM 0.017 hr / MSRA (% modification) 5.0 μM 0.25 hr: 5.0 μM compound; for MSRA (% modification) 10 μM 0.50 hr / MSRA (% modification) 10 μM 0.25 hr: 10 μM compound. In outline: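 Covalent labelling is measured by intact mass: deconvoluted modified and unmodified peak intensities yield percent modification. Compound, usually 5 μM or 10 μM final, reacts at room temperature with 5 μM GDP-bound KRAS G12C (1-169, C51S/C80L/C118S) in Hepes pH 7.5/NaCl/glycerol, sampled at 1, 15, 30, 60 min.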

Another experiment has as its target KRAS G12C (Homo sapiens, UniProt P01116, G12C). Kind of experiment: Cell Activity Assay: accumulation of GDP-bound KRAS G12C in MIAPaCa-2 cells (Raf-1 RBD capture, MSD readout). In kind it is cell-based. On the set-up: endogenous in cells; host or cells: MIAPaCa-2. The settings on record: 6 hours, assay limit is 30.00. The procedure, abridged: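 IC50 came from a 4-parameter fit of Ras signal normalized between DMSO and full-inhibition controls. Readout: lysate GTP-Ras bound to immobilized Raf-1 RBD, quantified with pan-Ras antibody and MSD electrochemiluminescence. Lysates derived from MIAPaCa-2 cells treated 6 h with serially diluted compound, 0.3% DMSO.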

As for `C=CC(=O)N1CCN(c2nc(Oc3cccc4c3CCN(CC)C4)nc3c(Oc4c(Cl)c(F)cc5[nH]ncc45)nccc23)CC1` [Example 17I, 1-(4-{8-[(5-chloro-6-fluoro-1H-indazol-4-yl)oxy]-2-[(2-ethyl-1,2,3,4-tetrahydro-isoquinolin-5-yl)oxy]pyrido [3,4-d]pyrimidin-4-yl}piperazin-1-yl)prop-2-en-1-one], the “MSRA (% modification) 5.0 μM 0.017 hr” value in experiment [1] amounted to 82%. Besides, the IC50 at KRAS G12C amounted to 0.005 µM.
As for `C=CC(=O)N1CCN(c2nc(O[C@@H]3CCOC3)nc3c(Oc4c(Cl)c(F)cc5[nH]ncc45)nccc23)CC1` [Example 02J, 1-(4-{8-[(5-chloro-6-fluoro-1H-indazol-4-yl)oxy]-2-[(3R)-tetrahydrofuran-3-yloxy]pyrido[3,4-d]pyrimidin-4-yl}piperazin-1-yl)prop-2-en-1-one], the “MSRA (% modification) 5.0 μM 0.25 hr” value in experiment [1] was determined as 26%. The same molecule had a half-maximal inhibitory concentration (IC50) at KRAS G12C of 0.62 µM.
Regarding `C=CC(=O)N1CCN(c2ncnc3c(Oc4c(Cl)ccc5[nH]ncc45)nc(C(F)(F)F)cc23)CC1` [Example 04A], in experiment [1], the “MSRA (% modification) 10 μM 0.50 hr” value was 40%. The molecule also gave a 50% inhibitory concentration (IC50) against KRAS G12C of 2.26 µM.
On to `C=CC(=O)N1CCN(c2ncnc3c(Oc4c(F)c(Cl)cc5[nH]ncc45)nc(Cl)cc23)CC1` [Example 34A, 1-(4-{6-chloro-8-[(6-chloro-5-fluoro-1H-indazol-4-yl)oxy]pyrido[3,4-d]pyrimidin-4-yl}piperazin-1-yl)prop-2-en-1-one], for which, in experiment [1], the “MSRA (% modification) 5.0 μM 0.25 hr” value was 19% and the “MSRA (% modification) 10 μM 0.25 hr” value turned out to be 47%. Moreover, the half-maximal inhibitory concentration (IC50) against KRAS G12C was determined as 1.29 µM.
As to `C=CC(=O)N1CCN(c2nc(OCc3cscn3)nc3c(Oc4c(C)ccc5[nH]ncc45)cccc23)CC1` [Example 23F, 1-(4-{8-[(5-methyl-1H-indazol-4-yl)oxy]-2-(1,3-thiazol-4-ylmethoxy)quinazolin-4-yl}piperazin-1-yl)prop-2-en-1-one], in experiment [1], the “MSRA (% modification) 5.0 μM 0.25 hr” value was 55% and the “MSRA (% modification) 10 μM 0.25 hr” value stood at 66%. For the same molecule, 0.944 µM corresponded to half-maximal inhibition on KRAS G12C (IC50).
`C=CC(=O)N1CCN(c2nc(OCC3CCN(C(C)=O)C3)nc3c(Oc4c(Cl)c(F)cc5[nH]ncc45)nccc23)CC1` (stereo not shown) [Example 05J, 1-(4-{2-[(1-acetylpyrrolidin-3-yl)methoxy]-8-[(5-chloro-6-fluoro-1H-indazol-4-yl)oxy]pyrido[3,4-d]pyrimidin-4-yl}piperazin-1-yl)prop-2-en-1-one]: the “MSRA (% modification) 5.0 μM 0.25 hr” value in experiment [1] is given as 81%. Further, the IC50 against KRAS G12C came to 1.07 µM.
For `C=CC(=O)N1CCN(c2nc(O[C@@H]3CN(C(C)C)C[C@H]3OC)nc3c(Oc4c(Cl)c(F)cc5[nH]ncc45)nccc23)CC1` [Example 20I, 1-[4-(8-[(5-chloro-6-fluoro-1H-indazol-4-yl)oxy]-2-{[(3R,4R)-4-methoxy-1-(propan-2-yl)pyrrolidin-3-yl]oxy}pyrido [3,4-d]pyrimidin-4-yl)piperazin-1-yl]prop-2-en-1-one], the “MSRA (% modification) 5.0 μM 0.017 hr” value in experiment [1] stood at 73%. Moreover, the midpoint of inhibition against KRAS G12C, the IC50, lay at 0.016 µM.
In the case of `C=CC(=O)N1CCN(c2ncnc3c(Oc4c(F)ccc5[nH]ncc45)nccc23)CC1` [Example 08A, 1-(4-{8-[(5-fluoro-1H-indazol-4-yl)oxy]pyrido[3,4-d]pyrimidin-4-yl}piperazin-1-yl)prop-2-en-1-one], in experiment [1], the “MSRA (% modification) 10 μM 0.50 hr” value is recorded as 6%. Further, it took 11.1 µM to reach half-maximal inhibition on KRAS G12C (IC50).
As to `C=CC(=O)N1CCN(c2ncnc3c(Oc4c(C)c(Cl)cc5[nH]ncc45)nccc23)C[C@H]1C` [Example 24A, 1-[(2R)-4-{8-[(6-chloro-5-methyl-1H-indazol-4-yl)oxy]pyrido[3,4-d]pyrimidin-4-yl}-2-methylpiperazin-1-yl]prop-2-en-1-one], in experiment [1], the “MSRA (% modification) 10 μM 0.50 hr” value amounted to 20%. On KRAS G12C, this molecule showed an IC50 of 4.72 µM.
Take `C=CC(=O)N1CCN(c2nc(Oc3cccnc3C(C)C)nc3c(Oc4c(Cl)c(F)cc5[nH]ncc45)nccc23)CC1` [Example 05I, 1-[4-(8-[(5-chloro-6-fluoro-1H-indazol-4-yl)oxy]-2-{[2-(propan-2-yl)pyridin-3-yl]oxy}pyrido [3,4-d]pyrimidin-4-yl)piperazin-1-yl]prop-2-en-1-one]: the “MSRA (% modification) 5.0 μM 0.25 hr” value in experiment [1] worked out at 70%. The IC50 at KRAS G12C is 0.074 µM.
For the molecule `C=CC(=O)N1CCN(c2nc(O[C@@H]3CN(C)C[C@H]3C(F)F)nc3c(Oc4c(Cl)c(F)cc5[nH]ncc45)nccc23)CC1` (racemic) [Example 36I, rac-1-[4-(8-[(5-chloro-6-fluoro-1H-indazol-4-yl)oxy]-2-{[(3S,4R)-4-(difluoro-methyl)-1-methyl-pyrrolidin-3-yl]oxy}pyrido [3,4-d]pyrimidin-4-yl)piperazin-1-yl]prop-2-en-1-one], the “MSRA (% modification) 5.0 μM 0.017 hr” value in experiment [1] is recorded as 57%. In addition, at KRAS G12C, the IC50 was determined as 0.029 µM.
Consider `C=CC(=O)N1CCN(c2nc(OC[C@H]3CCCN3C(C)=O)nc3c(Oc4c(Cl)c(F)cc5[nH]ncc45)nccc23)CC1` [Example 04J, 1-[4-(2-{[(2R)-1-acetylpyrrolidin-2-yl]methoxy}-8-[(5-chloro-6-fluoro-1H-indazol-4-yl)oxy]pyrido[3,4-d]pyrimidin-4-yl)piperazin-1-yl]prop-2-en-1-one], for which, in experiment [1], the “MSRA (% modification) 5.0 μM 0.25 hr” value is 64%. At KRAS G12C, the midpoint of inhibition, the IC50, lay at 0.989 µM.
As to `[2H]C([2H])([2H])N1C[C@@H](OC)[C@H](Oc2nc(N3CCN(C(=O)C=C)CC3)c3ccnc(Oc4c(Cl)c(F)cc5[nH]ncc45)c3n2)C1` [Example 56I, 1-[4-(8-[(5-chloro-6-fluoro-1H-indazol-4-yl)oxy]-2-{[(3R,4R)-4-methoxy-1-(^2H3)methyl-pyrrolidin-3-yl]oxy}pyrido [3,4-d]pyrimidin-4-yl)piperazin-1-yl]prop-2-en-1-one], the “MSRA (% modification) 5.0 μM 0.017 hr” value in experiment [1] came to 81%. The same molecule returned an IC50 against KRAS G12C of 0.04 µM.
For `C=CC(=O)N1CCN(c2nc(OC[C@@H]3CCCN3C)nc3c(Oc4c(C)ccc5[nH]ncc45)nc(Cl)cc23)CC1` [Example 03G, 1-[4-(6-chloro-8-[(5-methyl-1H-indazol-4-yl)oxy]-2-{[(2S)-1-methylpyrrolidin-2-yl]methoxy}pyrido[3,4-d]pyrimidin-4-yl)piperazin-1-yl]prop-2-en-1-one], in experiment [1], the “MSRA (% modification) 10 μM 0.25 hr” value is given as 72%. Also, at KRAS G12C, the IC50 amounted to 0.155 µM.
Turning to `C=CC(=O)N1CCN(c2nc(N(C)CCC(=O)N(C)C)nc3c(Oc4c(C)ccc5[nH]ncc45)cccc23)CC1` [Example 05F, N^3-{4-(4-acryloylpiperazin-1-yl)-8-[(5-methyl-1H-indazol-4-yl)oxy]quinazolin-2-yl}-N,N,N^3-trimethyl-β-alaninamide], the “MSRA (% modification) 10 μM 0.50 hr” value in experiment [1] is given as 22%. Further, the IC50 on KRAS G12C was determined as 28.5 µM.
As to `C=CC(=O)N1CCN(c2nc(OCc3ccccn3)nc3c(Oc4c(Cl)c(F)cc5[nH]ncc45)nccc23)CC1` [Example 08H, 1-(4-{8-[(5-chloro-6-fluoro-1H-indazol-4-yl)oxy]-2-(pyridin-2-ylmethoxy)pyrido[3,4-d]pyrimidin-4-yl}piperazin-1-yl)prop-2-en-1-one], the “MSRA (% modification) 5.0 μM 0.25 hr” value in experiment [1] is reported as 36%. This molecule had a concentration for half-maximal inhibition (IC50) on KRAS G12C of 0.491 µM.
`C=CC(=O)N1CCN(c2nc(OC[C@@H]3CCCN3C)nc3c(Oc4c(C)ccc5[nH]ncc45)nccc23)CC1` [Example 08B, 1-[4-(8-[(5-methyl-1H-indazol-4-yl)oxy]-2-{[(2S)-1-methylpyrrolidin-2-yl]methoxy}pyrido[3,4-d]pyrimidin-4-yl)piperazin-1-yl]prop-2-en-1-one]: the “MSRA (% modification) 10 μM 0.25 hr” value in experiment [1] was found to be 44%. Further, half-maximal inhibition against KRAS G12C (IC50) required 2.56 µM.
As to `C=CC(=O)N1CCN(c2nc(OC[C@H]3CCN(C)C3)nc3c(Oc4c(Cl)c(F)cc5[nH]ncc45)nccc23)CC1` [Example 18E, 1-[4-(8-[(5-chloro-6-fluoro-1H-indazol-4-yl)oxy]-2-{[(3S)-1-methylpyrrolidin-3-yl]methoxy}pyrido[3,4-d]pyrimidin-4-yl)piperazin-1-yl]prop-2-en-1-one], the “MSRA (% modification) 10 μM 0.25 hr” value in experiment [1] is 80%. Moreover, the IC50 at KRAS G12C is 0.262 µM.
As to `C=CC(=O)N1C[C@H](C)N(c2ncnc3c(Oc4c(Cl)c(F)cc5[nH]ncc45)nc(Cl)cc23)C[C@H]1C` [Example 35A, 1-[(2R,5S)-4-{6-chloro-8-[(5-chloro-6-fluoro-1H-indazol-4-yl)oxy]pyrido[3,4-d]pyrimidin-4-yl}-2,5-dimethylpiperazin-1-yl]prop-2-en-1-one], in experiment [1], the “MSRA (% modification) 10 μM 0.25 hr” value was found to be 64%. Also, the IC50 against KRAS G12C worked out at 4.26 µM.
Turning to `C=CC(=O)N1CCN(c2ncnc3c(Oc4c(C)ccc5[nH]ncc45)cccc23)[C@@H](C)C1` [Example 10C, 1-[(3S)-3-methyl-4-{8-[(5-methyl-1H-indazol-4-yl)oxy]quinazolin-4-yl}piperazin-1-yl]prop-2-en-1-one], the “MSRA (% modification) 10 μM 0.50 hr” value in experiment [1] was determined as 27%. The same molecule gave an IC50 against KRAS G12C of 5.21 µM.
As to `C=CC(=O)N1CCN(c2nc(N3CCN(C)CC3)nc3c(Oc4c(C)ccc5[nH]ncc45)nccc23)CC1` [Example 03B, 1-(4-{8-[(5-methyl-1H-indazol-4-yl)oxy]-2-(4-methylpiperazin-1-yl)pyrido[3,4-d]pyrimidin-4-yl}piperazin-1-yl)prop-2-en-1-one], the “MSRA (% modification) 10 μM 0.50 hr” value in experiment [1] is on record as 6%. Moreover, 27.1 µM corresponded to half-maximal inhibition against KRAS G12C (IC50).
As for `C=CC(=O)N1CCN(c2ncnc3c(Oc4c(Cl)ccc5[nH]ncc45)cccc23)C[C@@H]1C` [Example 07C, 1-[(2S)-4-{8-[(5-chloro-1H-indazol-4-yl)oxy]quinazolin-4-yl}-2-methylpiperazin-1-yl]prop-2-en-1-one], the “MSRA (% modification) 10 μM 0.50 hr” value in experiment [1] is listed as 15%. Moreover, half-maximal inhibition against KRAS G12C (IC50) was put at 5.67 µM.

The record behind these values is patent publication US10662204B2 (PFIZER INC., priority 2018, dated 2020).
